Data published in patent US20260256770A1, “COMPOSITIONS FOR AND METHODS OF TREATING HEREDITARY AORTOPATHIES” (Duke University, priority 2021, published 2026).
“Also recorded” adds a separate entry of the source.

Assays:
TRPC4 = target: T1, TRPC4 (Mus musculus, UniProt Q9QUQ5); conditions: ML204 as reference for projected binding affinity of candidate inhibitors; cited from earlier work
T1 construct: expressed in transfected cells; host or cells: HEK293
T1 sequence (Q9QUQ5 1-890 isoform Q9QUQ5-2): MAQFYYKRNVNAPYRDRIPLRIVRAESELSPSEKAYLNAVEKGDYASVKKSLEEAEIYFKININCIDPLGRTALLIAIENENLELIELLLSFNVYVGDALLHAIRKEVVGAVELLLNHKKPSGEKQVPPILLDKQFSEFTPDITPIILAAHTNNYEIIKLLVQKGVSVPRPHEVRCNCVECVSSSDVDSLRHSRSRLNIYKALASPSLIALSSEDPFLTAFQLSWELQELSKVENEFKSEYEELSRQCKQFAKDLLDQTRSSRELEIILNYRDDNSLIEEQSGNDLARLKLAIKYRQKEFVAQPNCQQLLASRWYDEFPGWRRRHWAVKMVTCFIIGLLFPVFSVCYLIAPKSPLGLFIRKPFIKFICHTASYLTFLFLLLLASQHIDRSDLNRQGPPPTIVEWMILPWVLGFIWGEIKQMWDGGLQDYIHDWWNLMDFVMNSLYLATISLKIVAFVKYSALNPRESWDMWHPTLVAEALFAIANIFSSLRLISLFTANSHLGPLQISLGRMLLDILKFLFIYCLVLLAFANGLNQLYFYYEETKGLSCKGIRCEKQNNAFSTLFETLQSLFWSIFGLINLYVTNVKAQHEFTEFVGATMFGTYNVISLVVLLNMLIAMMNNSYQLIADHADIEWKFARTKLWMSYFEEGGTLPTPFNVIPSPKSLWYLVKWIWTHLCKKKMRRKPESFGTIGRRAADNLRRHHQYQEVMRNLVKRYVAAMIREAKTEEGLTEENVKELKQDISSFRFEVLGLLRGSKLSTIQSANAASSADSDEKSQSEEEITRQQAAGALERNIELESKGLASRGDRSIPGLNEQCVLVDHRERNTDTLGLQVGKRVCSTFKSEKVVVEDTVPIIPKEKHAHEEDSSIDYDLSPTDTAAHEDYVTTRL

[1] = test system: accelerated MFS (aMFS) mice; conditions: aMFS aneurysms generated with exogenous angiotensin II; cited from earlier work
MFS mice = conditions: cited from earlier work
MFS patients = conditions: clinical; cited from earlier work
[2] = Accelerated MFS model: osmotically delivered angiotensin II infusion in FBN1 mutant MFS mouse; assay type: in vivo; conditions: angiotensin II-infused wild-type mice over the treatment period
Description: (§1) The Examples provided infra use a novel murine MFS model of accelerated aortic aneurysm formation and cardiomyopathy. This MFS uses two well-characterized in vivo systems for studying aortopathy and cardiomyopathy, namely, the FBN1 mutant MFS mouse and osmotically delivered angiotensin II infusion. In this accelderated model, significant aortic aneurysms were observed as early as 10 days after angiotensin II pump implantation. […] Overwhelmingly, these deaths were a result of ascending aortic aneurysm rupture or dissection. […] Similarly, the accelerated MFS model described and used herein produced a dilated cardiomyopathy as early as 14 days after angiotensin II minipump installation, as determined by echocardiographic measurements of end-diastolic volume and ejection fraction, heart mass-to-body weight ratios, and hematoxylin and eosin tissue staining patterns consistent with the diagnosis. After 14 days of pump installation, 60% of surviving angiotensin II-infused MFS mice met a defined echocardiographic criteria for dilated cardiomyopathy.
(§2) To better understand these clinical differences, a MFS mouse model was generated to facilitate high throughput therapeutic screening. Using exogenous angiotensin II in MFS mice, ascending aortic aneurysms can be generated in 2 weeks instead of 6-9 months (Cavanaugh N B, et al. (2017) Ann Thorac Surg. 104:657-665). […] TRPC4 antagonists therefore represent an opportunity to replace surgery in MFS aortopathy.

FBN1 mutant MFS mouse [3] = assay: as above; assay type: in vivo
Description: as §1, §2

FBN1 mutant MFS mouse [4] = conditions: instead of 6-9 months in MFS mice; cited from earlier work
129S MFS mice = conditions: 129S background, Mmp17/EGFR/p38MAPK/ERK effects; cited from earlier work

Cc1cc(N2CCCCC2)nc2ccccc12 [ML204, 4-Methyl-2-(piperidin-1-yl) quinoline]
IC50 (TRPC4): 0.96 to 2.6 µM

CCCCc1nc(Cl)c(CO)n1Cc1ccc(-c2ccccc2-c2nn[nH]n2)cc1 [Losartan]
response of aneurysms to therapy [1]: only partially respond | aneurysm growth (MFS mice; MFS mice started on therapy after aneurysms have formed / later in life): only attenuates aneurysm growth; also recorded: aneurysms continue to grow albeit at a slower rate; also recorded: had less of an effect | aneurysm formation / development (MFS mice; MFS mice treated prior to aneurysm development / at an early age): blocked aneurysm formation; also recorded: blocks aneurysm development; also recorded: did not develop aneurysms | aortic diameter growth (MFS mice; estimate used for power calculation, 0.1 mm standard deviation): 0.4 mm | aneurysm progression (MFS patients): only slowed aneurysm progression | number of patients who ultimately required surgery (MFS patients): did not affect

angiotensin II [osmotically delivered exogenous angiotensin II used to accelerate aneurysm formation in MFS mice]
aneurysm formation [2]: did not form aneurysms | time to significant aortic aneurysms after pump implantation (FBN1 mutant MFS mouse [3]; MFS mice): ≥ 10 days | time to dilated cardiomyopathy after minipump installation (FBN1 mutant MFS mouse [3]; MFS mice, echocardiography): ≥ 14 days | surviving mice meeting echocardiographic criteria for dilated cardiomyopathy (FBN1 mutant MFS mouse [3]; after 14 days of pump installation): 60% | blood pressures (FBN1 mutant MFS mouse [3]; treatment group): not elevated | time to generate ascending aortic aneurysms (FBN1 mutant MFS mouse [4]): 2 weeks

angiotensin II (DRVYIHPF; Angiotensin-2; UniProt P11859 25-32, looked up) [osmotically delivered exogenous angiotensin II used to accelerate aneurysm formation in MFS mice]
deaths of treatment group (FBN1 mutant MFS mouse [3]; at 14 days after implant): one third | deaths of treatment group (FBN1 mutant MFS mouse [3]; at 28 days after implant): more than half

C#Cc1cccc(Nc2ncnc3cc(OCCOC)c(OCCOC)cc23)c1 [Erolotinib]
aggressive MFS phenotype (129S MFS mice): rescue the aggressive MFS phenotype
